# Test results reported in patent publication US10150758B2, “PRMT5 inhibitors and uses thereof” (Epizyme, Inc., priority 2012, dated 2018).
# Molecular target: PRMT5/MEP50 (Homo sapiens (Human), UniProt O14744)
# Assay: PRMT5 Biochemical Assay (PRMT5/MEP50 enzyme assay on peptide substrate, 3H-SAM Flashplate)
# Details: PRMT5/MEP50 4 nM, 3H-SAM 75 nM, peptide 40 nM
# From the text: S-adenosylmethionine (SAM), S-adenosylhomocysteine (SAH), bicine, KCl, Tween20, dimethylsulfoxide (DMSO), bovine skin gelatin (BSG), and Tris(2-carboxyethyl)phosphine hydrochloride solution (TCEP) were purchased from Sigma-Aldrich at the highest level of purity possible. ^3H-SAM was purchase from American Radiolabeled Chemicals with a specific activity of 80 Ci/mmol. 384-well streptavidin Flashplates were purchased from PerkinElmer.
# Peptide representative of human histone H4 residues 1-15 was synthesized with a C-terminal linker-affinity tag motif and a C-terminal amide cap by 21st Century Biochemicals. The peptide was high high-perfomance liquid chromatography (HPLC) purified to greater than 95% purity and confirmed by liquid chromatography mass spectrometry (LC-MS). The sequence was Ac-[…][K-Biot]-amide (SEQ ID NO.:3).
# Full-length human PRMT5 (NM_006109.3) transcript variant 1 clone was amplified from a fetal brain cDNA library, incorporating flanking 5′ sequence encoding a FLAG tag ([…]) (SEQ ID NO.:4) fused directly to Ala 2 of PRMT5. Full-length human MEP50 (NM_024102) clone was amplified from a human testis cDNA library incorporating a 5′ sequence encoding a 6-histidine tag (MHHHHHH) (SEQ ID NO.:5) fused directly to Arg 2 of MEP50. The amplified genes were sublconed into pENTR/D/TEV (Life Technologies) and subsequently transferred by Gateway™ attL×attR recombination to pDEST8 baculvirus expression vector (Life Technologies).
# Recombinant baculovirus and Baculovirus-Infected Insect Cells (BIIC) were generated according to Bac-to-Bac kit instructions (Life Technologies) and Wasilko, 2006, respectively. Protein over-expression was accomplished by infecting exponentially growing Spodoptera frugiperda (SF9) cell culture at 1.2×10^6 cell/ml with a 5000 fold dilution of BIIC stock. Infections were carried out at 27° C. for 72 hours, harvested by centrifugation, and stored at −80° C. for purification.
# Flag-PRMT5/6His-MeP50 was eluted with 300 mM Imidazole in the same buffer. The purity of recovered protein was 87%. Reference: Wasilko, D. J. and S. E. Lee: “TIPS: titerless infected-cells preservation and scale-up” Bioprocess J., 5 (2006), pp. 29-32.
# General Procedure for PRMT5/MEP50 Enzyme Assays on Peptide Substrates.
# The assays were all performed in a buffer consisting of 20 mM Bicine (pH=7.6), 1 mM TCEP, 0.005% BSG, and 0.002% Tween20, prepared on the day of use. Compounds in 100% DMSO (1 ul) were spotted into a polypropylene 384-well V-bottom plates (Greiner) using a Platemate Plus outfitted with a 384-channel head (Thermo Scientific). DMSO (1 ul) was added to Columns 11, 12, 23, 24, rows A-H for the maximum signal control and 1 ul of SAH, a known product and inhibitor of PRMT5/MEP50, was added to columns 11, 12, 23, 24, rows I-P for the minimum signal control. A cocktail (40 ul) containing the PRMT5/MEP50 enzyme and the peptide was added by Multidrop Combi (Thermo-Fisher). The compounds were allowed to incubate with PRMT5/MEP50 for 30 min at 25 degrees Celsius, then a cocktail (10 ul) containing ^3H-SAM was added to initiate the reaction (final volume=51 ul). The final concentrations of the components were as follows: PRMT5/MEP50 was 4 nM, ^3H-SAM was 75 nM, peptide was 40 nM, SAH in the minimum signal control wells was 100 uM, and the DMSO concentration was 1%. The assays were stopped by the addition of non-radioactive SAM (10 ul) to a final concentration of 600 uM, which dilutes the ^3H-SAM to a level where its incorporation into the peptide substrate is no longer detectable. 50 ul of the reaction in the 384-well polypropylene plate was then transferred to a 384-well Flashplate and the biotinylated peptides were allowed to bind to the streptavidin surface for at least 1 hour before being washed three times with 0.1% Tween20 in a Biotek ELx405 plate washer. […]
# Chain of PRMT5/MEP50 (O14744 other isoform, or with tags, fused parts or gaps): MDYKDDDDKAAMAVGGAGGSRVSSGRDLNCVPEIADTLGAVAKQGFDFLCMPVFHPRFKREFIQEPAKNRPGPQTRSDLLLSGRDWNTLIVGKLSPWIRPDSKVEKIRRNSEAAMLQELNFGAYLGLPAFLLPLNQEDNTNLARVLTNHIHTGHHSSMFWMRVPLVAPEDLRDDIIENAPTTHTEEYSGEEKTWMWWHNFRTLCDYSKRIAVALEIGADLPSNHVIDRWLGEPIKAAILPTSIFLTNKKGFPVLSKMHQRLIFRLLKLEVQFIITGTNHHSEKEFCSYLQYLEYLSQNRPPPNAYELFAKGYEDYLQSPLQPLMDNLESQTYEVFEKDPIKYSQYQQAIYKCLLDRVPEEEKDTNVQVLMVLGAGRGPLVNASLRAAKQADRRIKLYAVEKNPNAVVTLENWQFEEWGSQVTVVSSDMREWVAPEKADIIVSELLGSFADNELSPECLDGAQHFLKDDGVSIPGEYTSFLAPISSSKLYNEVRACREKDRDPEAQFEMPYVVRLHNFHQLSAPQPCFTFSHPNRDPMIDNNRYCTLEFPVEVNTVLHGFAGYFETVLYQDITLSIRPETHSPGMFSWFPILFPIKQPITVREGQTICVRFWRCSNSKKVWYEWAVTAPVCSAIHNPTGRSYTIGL
# Chain of PRMT5/MEP50 (Q9BQA1 other isoform, or with tags, fused parts or gaps partner): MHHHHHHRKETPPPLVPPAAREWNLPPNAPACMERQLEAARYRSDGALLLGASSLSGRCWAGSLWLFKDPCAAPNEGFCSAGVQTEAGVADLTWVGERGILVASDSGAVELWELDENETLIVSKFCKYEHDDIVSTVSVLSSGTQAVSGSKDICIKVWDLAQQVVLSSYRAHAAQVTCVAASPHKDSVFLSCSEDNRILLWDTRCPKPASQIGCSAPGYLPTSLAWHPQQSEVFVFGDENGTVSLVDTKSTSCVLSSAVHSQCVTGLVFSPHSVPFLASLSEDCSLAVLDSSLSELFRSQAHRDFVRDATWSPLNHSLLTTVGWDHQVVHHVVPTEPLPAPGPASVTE
row,SMILES,IC50
1,O=C1CN(Cc2cccnc2)CCN1CC(O)CN1CCc2ccccc2C1 (stereo not shown) [Compound 26],1 to 10 µM
2,CN1CCN(CC(O)CN2CCc3ccccc3C2)C(=O)C1 (stereo not shown) [Compound 27],> 50 µM
3,CN(C)c1ccc(N2CCN(C[C@H](O)CN3CCc4ccccc4C3)C(=O)C2)cc1 [Compound 30],1 to 10 µM
4,"O=C1CN(c2cccc(Cl)c2)CCN1CC(O)CN1CCc2ccccc2C1 (stereo not shown) [Compound 5, 4-(3-chlorophenyl)-1-(3-(3,4-dihydroisoquinolin-2(1H)-yl)-2-hydroxypropyl)piperazin-2-one]",< 0.1 µM
5,O=C1CC(c2ccccc2)CCN1C[C@@H](O)CN1CCc2ccccc2C1 (stereo partly shown) [Compound 17],1 to 10 µM
6,CC(=O)N1CCN(CC(O)CN2CCc3ccccc3C2)C(=O)C1 (stereo not shown) [Compound 21],1 to 10 µM
7,O=C1CN(C2CCOCC2)CCN1CC(O)CN1CCc2ccccc2C1 (stereo not shown) [Compound 23],1 to 10 µM
8,O=C(NC1CCOCC1)C1CC(=O)N(CC(O)CN2CCc3ccccc3C2)C1 (stereo not shown) [Compound 32],> 10 µM
9,O=C1CN(Cc2ccccn2)CCN1CC(O)CN1CCc2ccccc2C1 (stereo not shown) [Compound 25],1 to 10 µM
10,O=c1cc(Nc2ccccc2)ccn1C[C@H](O)CN1CCc2ccccc2C1 [Compound 18],1 to 10 µM
11,CS(=O)(=O)N1CCN(CC(O)CN2CCc3ccccc3C2)C(=O)C1 (stereo not shown) [Compound 22],1 to 10 µM
12,O=C1CC(c2ccccc2)CCN1C[C@H](O)CN1CCc2ccccc2C1 (stereo partly shown) [Compound 16],1 to 10 µM
13,O=C1CN(c2ccc(CO)cc2)CCN1CC(O)CN1CCc2ccccc2C1 (stereo not shown) [Compound 20],0.101 to 1 µM
14,O=C1CN(Cc2ccccc2)CCN1CC(O)CN1CCc2ccccc2C1 (stereo not shown) [Compound 24],1 to 10 µM
15,O=C1COCCN1CC(O)CN1CCc2ccccc2C1 (stereo not shown) [Compound 28],1 to 10 µM
16,O=c1cccc(CC(O)CN2CCc3ccccc3C2)[nH]1 (stereo not shown) [Compound 2],10 to 50 µM
17,"Cc1cccc(N2CCN(CC(O)CN3CCc4ccccc4C3)C(=O)C2)c1 (stereo not shown) [Compound 3, 1-(3-(3,4-dihydroisoquinolin-2(1H)-yl)-2-hydroxypropyl)-4-(m-tolyl)piperazin-2-one]",10 to 50 µM

# Test system: symmetric di-methyl arginine in Z-138 cells
# Assay: Z-138 Methylation Assay (In Cell Western for symmetric di-methyl arginine and DNA content)
# Assay type: cell-based
# Details: Homo sapiens, 96 hours incubation, read-out: ICW EC50
# From the text: [formula] [formula] Where top and bottom are the normally allowed to float, but may be fixed at 100 or 0 respectively in a 3-parameter fit. The Hill Coefficient normally allowed to float but may also be fixed at 1 in a 3-parameter fit. Y is the % inhibition and X is the compound concentration. Z-138 Methylation Assay
# Z-138 suspension cells were purchased from ATCC (American Type Culture Collection, Manassas, Va.). RPMI/Glutamax medium, penicillin-streptomycin, heat inactivated fetal bovine serum, and D-PBS were purchased from Life Technologies, Grand Island, N.Y., USA. Odyssey blocking buffer, 800CW goat anti-rabbit IgG (H+L) antibody, and Licor Odyssey infrared scanner were purchased from Licor Biosciences, Lincoln, Nebr., USA. Symmetric di-methyl arginine antibody was purchased from EMD Millipore, Billerica, Mass., USA. 16% Paraformaldehyde was purchased from Electron Microscopy Sciences, Hatfield, Pa., USA.
# Z-138 suspension cells were maintained in growth medium (RPMI 1640 supplemented with 10% v/v heat inactivated fetal bovine serum and 100 units/mL penicillin-streptomycin) and cultured at 37° C. under 5% CO2.
# Cell Treatment, in Cell Western (ICW) for Detection of Symmetric Di-Methyl Arginine and DNA Content.
# Z-138 cells were seeded in assay medium at a concentration of 50,000 cells per mL to a 384-well cell culture plate with 50 μL per well. Compound (100 nL) from 384 well source plates was added directly to 384 well cell plate. Plates were incubated at 37° C., 5% CO2 for 96 hours. After four days of incubation, 40 μL of cells from incubated plates were added to poly-D-lysine coated 384 well culture plates (BD Biosciences 356697). Plates were incubated at room temperature for 30 minutes then incubated at 37° C., 5% CO2 for 5 hours. After the incubation, 40 μL per well of 8% paraformaldehyde in PBS (16% paraformaldahyde was diluted to 8% in PBS) was added to each plate and incubated for 30 minutes. Plates were transferred to a Biotek 405 plate washer and washed 5 times with 100 μL per well of wash buffer (1×PBS with 0.1% Triton X-100 (v/v)). Next 30 μL per well of Odyssey blocking buffer were added to each plate and incubated 1 hour at room temperature. Blocking buffer was removed and 20 μL per well of primary antibody was added (symmetric di-methyl arginine diluted 1:100 in Odyssey buffer with 0.1% Tween 20 (v/v)) and plates were incubated overnight (16 hours) at 4° C. Plates were washed 5 times with 100 μL per well of wash buffer. Next 20 μL per well of secondary antibody was added (1:200 800CW goat anti-rabbit IgG (H+L) antibody, 1:1000 DRAQ5 (Biostatus limited) in Odyssey buffer with 0.1% Tween 20 (v/v)) and incubated for 1 hour at room temperature. The plates were washed 5 times with 100 μL per well wash buffer then 1 time with 100 μL per well of water. Plates were allowed to dry at room temperature then imaged on the Licor Odyssey machine which measures integrated intensity at 700 nm and 800 nm wavelengths. Both 700 and 800 channels were scanned.
# First, the ratio for each well was determined by:
# Each plate included fourteen control wells of DMSO only treatment (minimum inhibition) as well as fourteen control wells for maximum inhibition treated with 3 μM of a reference compound (Background wells). The average of the ratio values for each control type was calculated and used to determine the percent inhibition for each test well in the plate. Reference compound was serially diluted three-fold in DMSO for a total of nine test concentrations, beginning at 3 μM. Percent inhibition was determined and IC50 curves were generated using triplicate wells per concentration of compound.
row,SMILES,EC50
1,Cc1ccccc1N1CCN(CC(O)CN2CCc3ccccc3C2)C(=O)C1 (stereo not shown) [Compound 10],> 50 µM
2,O=c1cc(-c2ccccc2)ccn1C[C@H](O)CN1CCc2ccccc2C1 [Compound 13],> 50 µM
3,O=C(NC1CCOCC1)c1ccn(CC(O)CN2CCc3ccccc3C2)c(=O)c1 (stereo not shown) [Compound 33],1 to 10 µM
4,"O=C1CN(c2cccc(Cl)c2)CCN1CC(O)CN1CCc2ccccc2C1 (stereo not shown) [Compound 5, 4-(3-chlorophenyl)-1-(3-(3,4-dihydroisoquinolin-2(1H)-yl)-2-hydroxypropyl)piperazin-2-one]",1 to 10 µM
5,"O=C1CN(c2ccccc2F)CCN1CC(O)CN1CCc2ccccc2C1 (stereo not shown) [Compound 11, 1-(3-(3,4-dihydroisoquinolin-2(1H)-yl)-2-hydroxypropyl)-4-(2-fluorophenyl)piperazin-2-one]",> 50 µM
6,O=C1CN(c2ccc(CO)cc2)CCN1CC(O)CN1CCc2ccccc2C1 (stereo not shown) [Compound 20],1 to 10 µM
7,O=c1cc(-c2ccccc2)ccn1C[C@@H](O)CN1CCc2ccccc2C1 [Compound 14],> 50 µM

# Test system: Z-138 cells
# Assay: Z-138 Proliferation Assay (Cell Titer Glo)
# Assay type: cell-based
# Details: Homo sapiens, 120 h, 5 days, top concentration 20 μM
# From the text: [formula] Z-138 Proliferation Assay
# Z-138 suspension cells were purchased from ATCC (American Type Culture Collection, Manassas, Va.). RPMI/Glutamax medium, penicillin-streptomycin, heat inactivated fetal bovine serum were purchased from Life Technologies, Grand Island, N.Y., USA. V-bottom polypropylene 384-well plates were purchased from Greiner Bio-One, Monroe, N.C., USA. Cell culture 384-well white opaque plates were purchased from Perkin Elmer, Waltham, Mass., USA. Cell-Titer Glo® was purchased from Promega Corporation, Madison, Wis., USA. SpectraMax M5 plate reader was purchased from Molecular Devices LLC, Sunnyvale, Calif., USA.
# Z-138 suspension cells were maintained in growth medium (RPMI 1640 supplemented with 10% v/v heat inactivated fetal bovine serum and cultured at 37° C. under 5% CO2. Under assay conditions, cells were incubated in assay medium (RPMI 1640 supplemented with 10% v/v heat inactivated fetal bovine serum and 100 units/mL penicillin-streptomycin) at 37° C. under 5% CO2.
# For the assessment of the effect of compounds on the proliferation of the Z-138 cell line, exponentially growing cells were plated in 384-well white opaque plates at a density of 10,000 cells/ml in a final volume of 50 μl of assay medium. A compound source plate was prepared by performing triplicate nine-point 3-fold serial dilutions in DMSO, beginning at 10 mM (final top concentration of compound in the assay was 20 μM and the DMSO was 0.2%). A 100 nL aliquot from the compound stock plate was added to its respective well in the cell plate. […] After addition of compounds, assay plates were incubated for 5 days at 37° C., 5% CO2, relative humidity >90%. Cell viability was measured by quantitation of ATP present in the cell cultures, adding 35 μl of Cell Titer Glo® reagent to the cell plates. Luminescence was read in the SpectraMax M5 microplate reader. The concentration of compound inhibiting cell viability by 50% was determined using a 4-parametric fit of the normalized dose response curves.
row,SMILES,EC50
1,O=C(NC1CCOCC1)c1ccn(CC(O)CN2CCc3ccccc3C2)c(=O)c1 (stereo not shown) [Compound 33],> 20 µM
